Results taken from patent US20110195505A1, “BACTERIAL STRAINS FOR BUTANOL PRODUCTION” (priority 2009, published 2011).
Several values for one entry are separate records, joined by “and”; a condition that tells them apart may be missing. Equal entries are not always repeated.

Columns and labels:
[1] = system: BP63 (ΔfabZ1); test: Growth yield (OD600) with oleic acid, fabZ1 deletion strain; format: cell-based, L. plantarum; conditions: for OD600 BP63 (ΔfabZ1): 24 hours, 30° C.
Protocol: (§1) Strain BP63 (ΔfabZ1, described in Example 4) and the parental strain BP15 (fabZ1^+, described in Example 3) were grown in semi-synthetic LAB medium, pH6, with 75 μg/ml uracil and 2.5 μg/mL hematin in the presence and absence of an unsaturated fatty acid, oleic acid. Cultures were prepared as described in General Methods.

[2] = system: BP63 (L. plantarum PN0512ΔpyrFΔfabZ1); test: Fatty acid supplements supporting growth of the fabZ1 mutant; format: cell-based; conditions: fatty acid supplied at 80 mg/L; overnight incubation, OD600
Protocol: With 100 or 200 mg/liter of oleic acid the growth of BP63 was equivalent to that of the fabZ1^+ control strain, BP15. […] Thus, we conclude that fabZ1 in L. plantarum has the same function as FabN in E. faecalis (Wang, H. and Cronan, J. E. 2004. Functional replacement of the FabA and FabB proteins of Escherichia coli fatty acid synthesis by Enterococcus faecalis FabZ and FabF homologs. J. Biol. Chem. 279, 34489-95). To further test the range of fatty acid supplements that support growth of the fabZ1 mutant, several other fatty acids were supplied at 80 mg/L to the semi-synthetic LAB medium as described above. BP63 and the parental control BP15 were inoculated from the working stocks. After overnight incubation, the OD600 was measured. The growth of BP15 was not inhibited by any of the fatty acids tested. The Table 9 below summarizes the results for the fabZ1 mutant strain, BP63.

[3] = system: BP63 (ΔfabZ1); test: Growth of BP63 in the presence of isobutanol and oleic acid; format: cell-based, L. plantarum; conditions: for Growth (OD600) of BP63 (ΔfabZ1): 18 hours, 30° C.
Protocol: The purpose of these experiments was to see if the requirement for oleic acid changed in the presence of isobutanol. Semi-synthetic LAB medium, pH6, supplemented with 75 μg/mL uracil, 2.5 μg/mL hematin was used along with a series of varying concentrations of isobutanol and oleic acid. Oleic was added to the final concentrations of 0, 10, 20, 30, 40, and 50 mg/L. Isobutanol was added to the final concentrations of 0, 1.0, 1.5, 2.0, 2.5, and 3% (w/v). 2.5 mL of media was inoculated with […] of the BP63 working stock. The cultures were incubated at 30° C. without shaking for 18 hours. At 18 hours the OD600 was measured.

[4] = system: BP63 (ΔfabZ1); test: Shake flask growth rate of BP63 with isobutanol and oleic acid; format: cell-based, L. plantarum
Protocol: Four sets of conditions were prepared. For the first set, 20 mg/l oleic acid was added and isobutanol was added to 0, 1, 1.5, 2 and 2.5% final concentration. In the second set of flasks, 30 mg/L of oleic acid was added to the medium and the following final isobutanol concentrations were used: 0, 1, 1.5, 2, 2.5, and 3% w/v. The third and fourth set of the shake flask cultures were done at oleic acid concentrations of 50 and 55 mg/L. These flasks were placed in a shaking water bath at 30° C. at 80 RPM. Samples were taken at 2, 3, 4, and 5 hrs and the OD600 was measured.

[5] = system: BP15 (fabZ1^+); test: Growth yield (OD600) with oleic acid, parental strain; format: cell-based, L. plantarum; conditions: 24 hours, 30° C.
Protocol: as §1

[6] = system: L. plantarum strain PN0512; test: Growth yield (OD600) in isobutanol, stearic acid fed and unfed cultures; format: cell-based, Lactobacillus plantarum; conditions: no fatty acid fed, 25 hours, 30° C.
Protocol: For growth yield experiments, 5 ml of medium with test fatty acids (10-500 mg per liter) and varying concentrations of isobutanol in 15 ml screw cap tubes was inoculated with 12.5 μl of the working stock giving an initial OD600 of 0.012. The caps were tightly sealed and incubated at 30° C. on a roller drum for 20 to 26 hours, at which time 1.0 ml was removed and OD600 was measured with a blank of medium amended with the fatty acid. All solvent concentrations are reported as % (w/v).
Growth of L. plantarum cultures in the media described in General Methods and containing varying concentrations of isobutanol was measured and compared with the cultures fed (supplemented with) stearic acid at a final concentration of 50 mg per liter of medium. Cultures were prepared as described in General Methods.

SMILES: CCCCCCCC/C=C\CCCCCCCC(=O)O [Oleic acid, oleic acid]
- growth of BP63 compared with fabZ1^+ control strain BP15 ([1]; 100 or 200 mg/liter of oleic acid): equivalent
- growth of BP63 ([1]; low concentrations of oleic acid up to 12 mg/liter): essentially no growth
- OD600 BP63 (ΔfabZ1) ([1]; oleic acid 1.5 mg/liter): 0.0091
- OD600 BP63 (ΔfabZ1) ([1]; oleic acid 3 mg/liter): 0.0081
- OD600 BP63 (ΔfabZ1) ([1]; oleic acid 6 mg/liter): 0.0084
- OD600 BP63 (ΔfabZ1) ([1]; oleic acid 12 mg/liter): 0.0234
- OD600 BP63 (ΔfabZ1) ([1]; oleic acid 25 mg/liter): 0.6943
- OD600 BP63 (ΔfabZ1) ([1]; oleic acid 100 mg/liter): 1.1452
- OD600 BP63 (ΔfabZ1) ([1]; oleic acid 200 mg/liter): 1.3725
- Supports growth of BP63 [2]: YES
- Growth (OD600) of BP63 (ΔfabZ1) ([3]; oleic acid 10 mg/liter, iso-butanol 0%): 0.0835
- Growth (OD600) of BP63 (ΔfabZ1) ([3]; oleic acid 20 mg/liter, iso-butanol 0%): 0.1046
- Growth (OD600) of BP63 (ΔfabZ1) ([3]; oleic acid 30 mg/liter, iso-butanol 0%): 0.153 and 0.1526
- Growth (OD600) of BP63 (ΔfabZ1) ([3]; oleic acid 40 mg/liter, iso-butanol 0%): 0.2976
- Growth (OD600) of BP63 (ΔfabZ1) ([3]; oleic acid 50 mg/liter, iso-butanol 0%): 1.181
- growth rate of BP63 compared with parental strain BP15 ([4]; 55 mg/liter oleic acid, all concentrations of isobutanol): essentially identical
- OD600 BP15 (fabZ1^+) ([5]; oleic acid 1.5 mg/liter): 0.9449
- OD600 BP15 (fabZ1^+) ([5]; oleic acid 3 mg/liter): 0.8375
- OD600 BP15 (fabZ1^+) ([5]; oleic acid 6 mg/liter): 0.9459
- OD600 BP15 (fabZ1^+) ([5]; oleic acid 12 mg/liter): 0.9681
- OD600 BP15 (fabZ1^+) ([5]; oleic acid 25 mg/liter): 1.0069
- OD600 BP15 (fabZ1^+) ([5]; oleic acid 100 mg/liter): 1.0915
- OD600 BP15 (fabZ1^+) ([5]; oleic acid 200 mg/liter): 1.3187

SMILES: CC(C)CO [Isobutanol, isobutanol]
- Growth (OD600) of BP63 (ΔfabZ1) ([3]; oleic acid 0 mg/liter, iso-butanol 1%): 0.0383
- Growth (OD600) of BP63 (ΔfabZ1) ([3]; oleic acid 0 mg/liter, iso-butanol 1.5%): 0.0385
- Growth (OD600) of BP63 (ΔfabZ1) ([3]; oleic acid 0 mg/liter, iso-butanol 2%): 0.0402
- Growth (OD600) of BP63 (ΔfabZ1) ([3]; oleic acid 0 mg/liter, iso-butanol 2.5%): 0.038
- Growth (OD600) of BP63 (ΔfabZ1) ([3]; oleic acid 0 mg/liter, iso-butanol 3%): 0.0351
- Growth (OD600) of BP63 (ΔfabZ1) ([3]; oleic acid 10 mg/liter, iso-butanol 1%): 0.0829
- Growth (OD600) of BP63 (ΔfabZ1) ([3]; oleic acid 10 mg/liter, iso-butanol 1.5%): 0.0601
- Growth (OD600) of BP63 (ΔfabZ1) ([3]; oleic acid 10 mg/liter, iso-butanol 2%): 0.0701
- Growth (OD600) of BP63 (ΔfabZ1) ([3]; oleic acid 10 mg/liter, iso-butanol 2.5%): 0.0684
- Growth (OD600) of BP63 (ΔfabZ1) ([3]; oleic acid 10 mg/liter, iso-butanol 3%): 0.0397
- Growth (OD600) of BP63 (ΔfabZ1) ([3]; oleic acid 20 mg/liter, iso-butanol 1%): 0.2291
- Growth (OD600) of BP63 (ΔfabZ1) ([3]; oleic acid 20 mg/liter, iso-butanol 1.5%): 0.2375
- Growth (OD600) of BP63 (ΔfabZ1) ([3]; oleic acid 20 mg/liter, iso-butanol 2%): 0.068
- Growth (OD600) of BP63 (ΔfabZ1) ([3]; oleic acid 20 mg/liter, iso-butanol 2.5%): 0.0594
- Growth (OD600) of BP63 (ΔfabZ1) ([3]; oleic acid 20 mg/liter, iso-butanol 3%): 0.0399
- Growth (OD600) of BP63 (ΔfabZ1) ([3]; oleic acid 30 mg/liter, iso-butanol 1%, listed as iso-butanol): 0.7686
- Growth (OD600) of BP63 (ΔfabZ1) ([3]; oleic acid 30 mg/liter, iso-butanol 1%, listed as isobutanol): 0.769
- Growth (OD600) of BP63 (ΔfabZ1) ([3]; oleic acid 30 mg/liter, iso-butanol 1.5%, listed as iso-butanol): 0.7137
- Growth (OD600) of BP63 (ΔfabZ1) ([3]; oleic acid 30 mg/liter, iso-butanol 1.5%, listed as isobutanol): 0.714
- Growth (OD600) of BP63 (ΔfabZ1) ([3]; oleic acid 30 mg/liter, iso-butanol 2%): 0.402
- Growth (OD600) of BP63 (ΔfabZ1) ([3]; oleic acid 30 mg/liter, iso-butanol 2.5%): 0.1606
- Growth (OD600) of BP63 (ΔfabZ1) ([3]; oleic acid 30 mg/liter, iso-butanol 3%): 0.0995
- Growth (OD600) of BP63 (ΔfabZ1) ([3]; oleic acid 40 mg/liter, iso-butanol 1%): 1.2315
- Growth (OD600) of BP63 (ΔfabZ1) ([3]; oleic acid 40 mg/liter, iso-butanol 1.5%): 0.8852
- Growth (OD600) of BP63 (ΔfabZ1) ([3]; oleic acid 40 mg/liter, iso-butanol 2%): 0.8012
- Growth (OD600) of BP63 (ΔfabZ1) ([3]; oleic acid 40 mg/liter, iso-butanol 2.5%): 0.1793
- Growth (OD600) of BP63 (ΔfabZ1) ([3]; oleic acid 40 mg/liter, iso-butanol 3%): 0.1358
- Growth (OD600) of BP63 (ΔfabZ1) ([3]; oleic acid 50 mg/liter, iso-butanol 1%): 1.2567
- Growth (OD600) of BP63 (ΔfabZ1) ([3]; oleic acid 50 mg/liter, iso-butanol 1.5%): 1.257
- Growth (OD600) of BP63 (ΔfabZ1) ([3]; oleic acid 50 mg/liter, iso-butanol 2%): 0.5464
- Growth (OD600) of BP63 (ΔfabZ1) ([3]; oleic acid 50 mg/liter, iso-butanol 2.5%): 0.1654
- Growth (OD600) of BP63 (ΔfabZ1) ([3]; oleic acid 50 mg/liter, iso-butanol 3%): 0.1185
- effect of isobutanol on growth of the fabZ1 mutant ([3]; oleic acid supplied at sub-optimal levels): enhanced the growth
- OD600 unfed control ([6]; 2.3 % w/v isobutanol): 0.727
- OD600 unfed control ([6]; 2.5 % w/v isobutanol): 0.341
- OD600 unfed control ([6]; 2.7 % w/v isobutanol): 0.131
- OD600 unfed control ([6]; 2.9 % w/v isobutanol): 0.051
- effect of isobutanol on growth rate of fabZ1 mutant strain BP63 ([4]; shake flask, suboptimal concentrations of oleic acid, FIG. 1): stimulated growth
